The supplement of paper PMC8633005

How the values were obtained:
Assay in all cases: drug sensitivity score (DSS) (DSS (unitless, 0-50 scale)); higher = more sensitive (stronger viability inhibition); extreme values may be limits of the assay
Details in all cases: 72 h; culture: 2D
Bowes = system: Bowes
Outline: (§1)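 Drug sensitivity scores, modified area-under-curve measures, were derived from dose-response curves fitted in the in-house Breeze software. The curves came from melanoma cell lines and patient-derived melanoma cultures (1000–1500 cells per well) grown in 2D in 384-well plates holding a 527-compound oncology library. Each compound was dissolved in DMSO or water and tested at five concentrations across a 10,000-fold range. Viability was read by CellTiter-Glo luminescence after 72 h at 37 °C.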

FM-MEL-3 = system: FM-MEL-3
Outline: as §1

WM165 = system: WM165
Outline: as §1

FM-MEL-2 = system: FM-MEL-2
Outline: as §1

FM-MEL-6 = system: FM-MEL-6
Outline: as §1

WM852 = system: WM852
Outline: as §1

SK-MEL-2 = system: SK-MEL-2
Outline: as §1

SK-MEL-28 = system: SK-MEL-28
Outline: as §1

Row | SMILES | drug sensitivity score (Bowes) | drug sensitivity score (FM-MEL-3) | drug sensitivity score (WM165) | drug sensitivity score (FM-MEL-2) | drug sensitivity score (FM-MEL-6) | drug sensitivity score (WM852) | drug sensitivity score (SK-MEL-2) | drug sensitivity score (SK-MEL-28)
1 | Cc1nn(C)c(COc2ccc(N3CCN(S(=O)(=O)N(C)C)CC3)cc2)c1-c1cccc2c(CCCOc3cccc4ccccc34)c(C(=O)O)n(CCN3CCOCC3)c12 | 6.7 | 7.8 | 6.4 | 8 | 7.8 | 5.4 | 4.6 | 5.6
2 | N.N.[Cl][Pt][Cl] [Cisplatin] | 5.6 | 5.8 | 19.2 | 4.2 | 4.5 | 5.1 | 4.4 | 9.2
3 | C=C1C[C@@H]2[C@H](CC[C@]3(C)C(=O)CC[C@@H]23)[C@@]2(C)C=CC(=O)C=C12 [Exemestane] | 1.4 | 0 | 0.2 | 0 | 0 | 0.3 | 0 | 0
4 | CN1CC[C@@H](NC(=O)Nc2ccc(C#N)cc2)C[C@@H]1c1nc2ccccc2[nH]1 [Glasdegib] | 0 | 0 | 0 | 0 | 0 | 0 | 0 | 0
5 | CC[C@H](C)C(=O)O[C@H]1C[C@@H](C)C=C2C=C[C@H](C)[C@H](CC[C@@H]3C[C@@H](O)CC(=O)O3)[C@H]21 [Lovastatin] | 2.1 | 0.1 | 1.8 | 0 | 0 | 0.6 | 0 | 0
6 | CC1(C)CC[C@]2(NC(=O)C(C)(F)F)CC[C@]3(C)[C@H](C(=O)C=C4[C@@]5(C)C=C(C#N)C(=O)C(C)(C)[C@@H]5CC[C@]43C)[C@@H]2C1 [Omaveloxolone] | 18.2 | 17.4 | 20.3 | 11.2 | 13.9 | 11.3 | 15.7 | 15.5
7 | CNC(=O)c1cc(Oc2ccc(NC(=O)Nc3ccc(Cl)c(C(F)(F)F)c3)cc2)ccn1 [Sorafenib] | 0 | 1.4 | 0 | 1 | 0 | 0 | 0 | 0
8 | COc1cc(CCc2cc(NC(=O)c3ccc(N4CC(C)NC(C)C4)cc3)n[nH]2)cc(OC)c1 (stereo unspecified) [AZD4547] | 0 | 0 | 0 | 0 | 0 | 0 | 0 | 0
9 | O=C(O)CC[C@H]1CC[C@@](c2cc(F)ccc2F)(S(=O)(=O)c2ccc(Cl)cc2)CC1 [MK-0752] | 0 | 0 | 0 | 0 | 0 | 0 | 0 | 0
10 | CO[C@@H]1[C@H](N(C)C(=O)c2ccccc2)C[C@H]2O[C@]1(C)n1c3ccccc3c3c4c(c5c6ccccc6n2c5c31)C(=O)NC4 [Midostaurin] | 5.1 | 5.4 | 14.6 | 3.5 | 2.3 | 8.1 | 2.9 | 4.3
11 | COC[C@H](NC(=O)c1cnc(C)s1)C(=O)N[C@@H](COC)C(=O)N[C@@H](Cc1ccccc1)C(=O)[C@@]1(C)CO1 [Oprozomib] | 20.3 | 20.3 | 20 | 9.3 | 19.4 | 16.9 | 15.2 | 17
12 | CC[C@H](CO)Nc1nc(NCc2ccccc2)c2ncn(C(C)C)c2n1 [Seliciclib] | 2.6 | 0 | 1.7 | 0.8 | 0 | 0 | 0 | 0
13 | COc1cc2c(Oc3ccc4[nH]c(C)cc4c3F)ncnc2cc1OCCCN1CCCC1 [Cediranib] | 1.7 | 0 | 0 | 0 | 1.3 | 0 | 0 | 0
14 | Nc1cc(C(F)(F)F)c(-c2cc(N3CCOCC3)nc(N3CCOCC3)n2)cn1 [Buparlisib] | 5.1 | 6.7 | 6.6 | 6.5 | 6 | 6 | 3.3 | 6.5
15 | COc1cc2nccc(Oc3ccc(NC(=O)NC4CC4)c(Cl)c3)c2cc1C(N)=O [Lenvatinib] | 1.3 | 0 | 0 | 0 | 0 | 0 | 0 | 0
16 | O=C(Nc1c[nH]nc1-c1nc2ccc(CN3CCOCC3)cc2[nH]1)NC1CC1 [AT9283] | 8 | 0 | 8 | 0 | 0 | 2.9 | 2.3 | 2.9
17 | CS(=O)(=O)CCNCc1ccc(-c2ccc3ncnc(Nc4ccc(OCc5cccc(F)c5)c(Cl)c4)c3c2)o1 [Lapatinib] | 1.1 | 0.2 | 0 | 0.6 | 0.1 | 0 | 0 | 0
